We go through 3 molecules from publication PMC5813964, “The enzymatic processing of α-dystroglycan by MMP-2 is controlled by two anchoring sites distinct from the active site” (PLoS ONE, 2018).

No end group written: not given here.

Assay [1] concerns the target T1, whole MMP-2 (Homo sapiens, UniProt P08253).
T1 construct: purchased R&D System, London, UK
T1 sequence (P08253 110-660): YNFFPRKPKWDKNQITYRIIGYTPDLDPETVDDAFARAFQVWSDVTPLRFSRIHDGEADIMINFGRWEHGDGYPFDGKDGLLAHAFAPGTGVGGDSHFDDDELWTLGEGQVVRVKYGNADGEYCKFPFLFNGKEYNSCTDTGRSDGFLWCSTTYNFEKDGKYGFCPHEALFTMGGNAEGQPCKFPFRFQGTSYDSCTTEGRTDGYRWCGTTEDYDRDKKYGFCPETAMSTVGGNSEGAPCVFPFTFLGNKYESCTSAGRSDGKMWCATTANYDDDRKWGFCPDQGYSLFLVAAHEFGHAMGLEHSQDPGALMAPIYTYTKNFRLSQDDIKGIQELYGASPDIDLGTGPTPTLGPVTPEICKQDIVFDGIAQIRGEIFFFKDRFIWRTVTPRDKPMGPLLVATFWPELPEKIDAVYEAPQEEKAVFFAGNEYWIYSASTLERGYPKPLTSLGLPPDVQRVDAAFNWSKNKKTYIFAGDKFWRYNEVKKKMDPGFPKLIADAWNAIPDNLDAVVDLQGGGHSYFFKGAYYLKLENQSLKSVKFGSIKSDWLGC
The assay can be described thus: MMP-2 proteolysis of fluorogenic peptide, modulation by α-DG C-term peptide. The format is biochemical. As to conditions: global fit Eqs 1-3. The protocol:
(§1) Human MMP-2 proenzyme 2 was activated by incubating 0.1 mg/ml progelatinase solution with 0.25 mM aminophenyl mercuric acid (Sigma, St. Louis, MO, USA) at 37°C for 30 minutes. Whereas human recombinant cdMMP-2 human was dissolved in a solution of 50 mM Tris/HCl (pH 7.2), 0.1M NaCl and 10 mMCaCl. […] All measurements were performed at 37°C using a solution of 50 mM Tris–HCl, 0.1 M NaCl, 10 mM CaCl2 and 0.05% Brij 35 buffered at pH 7.3.
(§2) Different concentrations of the α-DG peptide (i.e., final concentration range spanning between 0 μM and 4 μM) were incubated with 0.07 μM active MMP-2 for 30 min at 37°C to allow the interaction to occur. In the case of the cdMMP2 the kinetics were performed employing 0.06 μM cdMMP-2 at different concentration of α-DG (613–651) peptide in the range 0–2 μM. Different concentrations of MCA fluorogenic peptide (i.e: from […]) were then added to this solution. The enzymatic reaction was recorded for 30 minutes at 37°C. The initial velocities were derived from the slopes within the first 15 minutes, which is the time period during which the rate is constant and less than 10% of the substrate was degraded. This ensured a steady-state condition for the first cleavage step, and it was a prerequisite for the subsequent analysis steps.
(§3) This behavior, which envisages the presence of (at least) two binding sites for the α-DG (613–651) peptide on the catalytic domain of MMP-2, can be kinetically and thermodynamically described by the scheme reported on Fig 5; where, ^0kcat and ^0Km are the observed catalytic parameters in the absence of the peptide, Ka and Kb are the peptide dissociation constants to the free enzyme for the two binding sites, α is the interaction parameter, which quantifies the effect on Km of the α-DG(613–651) peptide binding to the first binding site (α > 1 indicates a negative effect with a decreased affinity, α < 1 a positive effect and α = 1 no effect), β is the interaction parameter which estimates the effect on kcat of the binding of α-DG(613–651) peptide to the first binding site (β > 1 indicates a positive effect with an increased rate constant, β < 1 a negative effect and β = 1 no effect).
(§4) Data reported in Figs 4 and 5 have been analyzed according to the following equation: [E0]/v=^obsKm/^obskcat⋅1/[S]+1/^obskcat (Eq 1) where [E0] is the total enzyme concentration, ν is the observed velocity (expressed as mol/s), [S] is the substrate concentration, ^obskcat and ^obsKm are the observed catalytic parameters, namely ^obskcat=^0kcat⋅(Ka⋅α+β⋅[Pept])/(Ka⋅α+[Pept]) (Eq 2) and ^obsKm=^0Km⋅α⋅(Ka⋅Kb+Kb⋅[Pept]+[Pept]^2)/Kb⋅(Ka⋅α+[Pept]) (Eq 3) where ^0kcat and ^0Km are the catalytic paramenters in the absence of peptide and all other symbols have the same meaning as described above.

In assay [2] the target is T2, cdMMP-2 (isolated catalytic domain of MMP-2) (Homo sapiens, UniProt P08253).
T2 construct: the catalytic domain of MMP-2 (without the hemopexin-like domain) retains the capability of degrading; purchased Biomol International
The assay can be described thus: cdMMP-2 proteolysis of fluorogenic peptide, modulation by α-DG C-term peptide. As to conditions: pH 7.3, 37°C, global fit Eqs 1-3. It is filed as biochemical. The protocol:
as §1, §2, §3, §4

Assay [3] has as its target human recombinant MMP-2 (whole enzyme, activated) (human).
The target of assay [4] is human recombinant catalytic domain of MMP-2 (cdMMP-2) (human).
In assay [5] the target is human recombinant MMP-2 (whole enzyme, activated) (human). The assay can be described thus: enzyme inhibition kinetics (fluorogenic substrate); peptide (0-4 μM with 0.07 μM active MMP-2; 0-2 μM with 0.06 μM cdMMP-2) incubated with the enzyme 30 min at 37°C, then MCA-Pro-Leu-Gly-Leu-DPA-Ala-Arg-NH2 added; initial velocities, global fit of Lineweaver-Burk data to a scheme with two peptide binding sites (Eqs 1-3); 50 mM Tris-HCl, 0.1 M NaCl, 10 mM CaCl2, 0.05% Brij 35, pH 7.3, 37°C.

The target of assay [6] is human recombinant catalytic domain of MMP-2 (cdMMP-2) (human). The description is as above.

Consider “MCA-Pro-Leu-Gly-Leu-DPA-Ala-Arg-NH2 [fluorogenic substrate, reference compound]”, for which the “^0kcat” value in assay [1] (whole MMP-2, absence of peptide, MCA-Pro-Leu-Gly-Leu-DPA-Ala-Arg-NH2 substrate, pH 7.3, 37°C, 50 mM Tris–HCl, 0.1 M NaCl, 10 mM CaCl2, 0.05% Brij 35, λexc 325 nm, λem 398 nm) amounted to 29.6 ± 4.5 s⁻¹; in assay [2] (cd-MMP-2, absence of peptide), 26.1 ± 4.1 s⁻¹. Besides, the “^0Km” value is 1.5(±0.3)×10^−6 M in assay [1] (whole MMP-2, absence of peptide, pH 7.3, 37°C) and 1.9(±0.5)×10^−6 M in assay [2] (cd-MMP-2, absence of peptide).

With “VGDPALVLNDIHKKIALVKKLAFAFGDRNCSTITLQNIT [α-DG (613–651) peptide]”, the Kd in assay [1] (whole MMP-2, fluorogenic substrate, peptide 0-4 μM, 30 min preincubation at 37°C, pH 7.3, read-out: Ka (peptide dissociation constant to the free enzyme, first, high affinity non-competitive site)) is 35 nM; in assay [2] (cd-MMP-2, fluorogenic substrate, peptide 0–2 μM, read-out: Ka (peptide dissociation constant to the free enzyme, first, high affinity non-competitive site)), 35 nM. In addition, the Kb in assay [1] (whole MMP-2, fluorogenic substrate, peptide 0-4 μM, 30 min preincubation at 37°C, pH 7.3, read-out: Kb (peptide dissociation constant to the free enzyme, second, lower affinity competitive active site)) was 210 nM; in assay [2] (cd-MMP-2, fluorogenic substrate, peptide 0–2 μM, read-out: Kb (peptide dissociation constant to the free enzyme, second, lower affinity competitive active site)), 210 nM.

Regarding VGDPALVLNDIHKKIALVKKLAFAFGDRNCSTITLQNIT [human α-DG (613–651) peptide], in assay [3], the interaction parameter α (effect of peptide at the first site on Km of the fluorogenic substrate) was determined as 1.7 and the interaction parameter β (effect of peptide at the first site on kcat for the fluorogenic substrate) is 0.27. Moreover, in assay [4], the interaction parameter β (effect of peptide at the first site on kcat for the fluorogenic substrate) stood at 0.32. Moreover, in assay [5], the Ka (dissociation constant, first site, higher affinity, non-competitive) was 35 nM and the Kb (dissociation constant, second site, lower affinity, competitive) came out at 210 nM. In assay [6], the Ka (dissociation constant, first site, higher affinity, non-competitive) is 35 nM and the Kb (dissociation constant, second site, lower affinity, competitive) stood at 210 nM.
